Reference: PubChem BioAssay AID248 (DTP/NCI, 2004)
Several values for one entry are separate records, joined by “and”; a condition that tells them apart may be missing. Identical values can stand only once. Inconclusive results and toxic doses are left out. No stated cut-off is given here; in the data, active means T/C of 150% or more; inactive means T/C below 125%.

System: L1210 leukemia ip in BDF1 mice, survival T/C
Test: NCI In Vivo Anticancer Drug Screen. Data for tumor model L1210 Leukemia (intraperitoneal) in B6D2F1 (BDF1) mice
Conditions: endpoint: mean survival time, higher = longer survival
Summary of the method: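 Tumor was transplanted into mice, which were then dosed with test compound or vehicle alone. Survival was recorded for each group, and the treated figure was expressed relative to the control figure.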

[1] = dose: 50.0 mg/kg/injection, schedule: Q01DX009 (ip), vehicle: other
[2] = dose: 100.0 mg/kg/injection, schedule: Q01DX009 (ip), vehicle: other
[3] = dose: 100.0 mg/kg/injection, schedule: Q04DX002 (ip), vehicle: saline with Tween-80
[4] = dose: 200.0 mg/kg/injection, schedule: Q04DX002 (ip), vehicle: saline with Tween-80
[5] = dose: 400.0 mg/kg/injection, schedule: Q04DX002 (ip), vehicle: saline with Tween-80
[6] = dose: 100.0 mg/kg/injection, schedule: Q01DX001 (ip), vehicle: Klucel (hydroxypropylcellulose) (HPC)
[7] = dose: 100.0 mg/kg/injection, schedule: Q01DX009 (ip), vehicle: Klucel (hydroxypropylcellulose) (HPC)
[8] = dose: 200.0 mg/kg/injection, schedule: Q01DX001 (ip), vehicle: Klucel (hydroxypropylcellulose) (HPC)
[9] = dose: 200.0 mg/kg/injection, schedule: Q01DX009 (ip), vehicle: Klucel (hydroxypropylcellulose) (HPC)
[10] = dose: 400.0 mg/kg/injection, schedule: Q01DX001 (ip), vehicle: Klucel (hydroxypropylcellulose) (HPC)
[11] = dose: 100.0 mg/kg/injection, schedule: Q01DX009 (ip), vehicle: saline
[12] = dose: 200.0 mg/kg/injection, schedule: Q01DX009 (ip), vehicle: saline
[13] = dose: 400.0 mg/kg/injection, schedule: Q01DX009 (ip), vehicle: saline
[14] = dose: 400.0 mg/kg/injection, schedule: Q01DX009 (ip), vehicle: saline with Tween-80
[15] = dose: 100.0 mg/kg/injection, schedule: Q04DX003 (ip), vehicle: Klucel (hydroxypropylcellulose) (HPC)
[16] = dose: 200.0 mg/kg/injection, schedule: Q04DX003 (ip), vehicle: Klucel (hydroxypropylcellulose) (HPC)
[17] = dose: 400.0 mg/kg/injection, schedule: Q04DX003 (ip), vehicle: Klucel (hydroxypropylcellulose) (HPC)
[18] = dose: 50.0 mg/kg/injection, schedule: Q01DX001 (ip), vehicle: saline
[19] = dose: 100.0 mg/kg/injection, schedule: Q01DX001 (ip), vehicle: saline
[20] = dose: 200.0 mg/kg/injection, schedule: Q01DX001 (ip), vehicle: saline
[21] = dose: 100.0 mg/kg/injection, schedule: Q01DX009 (ip), vehicle: saline with Tween-80
[22] = dose: 200.0 mg/kg/injection, schedule: Q01DX009 (ip), vehicle: saline with Tween-80
[23] = dose: 400.0 mg/kg/injection, schedule: Q01DX009 (ip), vehicle: Klucel (hydroxypropylcellulose) (HPC)
[24] = dose: 100.0 mg/kg/injection, schedule: Q04DX003 (ip), vehicle: saline with Tween-80
[25] = dose: 200.0 mg/kg/injection, schedule: Q04DX003 (ip), vehicle: saline with Tween-80

Measured: T/C

CCCCN(C)N=Nc1ccccc1C(=O)O
inactive: dose: 6.25 mg/kg/injection, schedule: Q01DX009 (ip), vehicle: other 100 % of control | dose: 12.5 mg/kg/injection, schedule: Q01DX009 (ip), vehicle: other 103 % of control | dose: 25.0 mg/kg/injection, schedule: Q01DX009 (ip), vehicle: other 108 % of control | [1] 110 % of control | [2] 123 % of control

CC(C)=CCC/C(C)=C\COc1cccc(C)c1
inactive: [3] 100 % of control | [4] 96 % of control | [5] 96 % of control

O=[N+]([O-])c1cc(Br)c(Br)cc1Br
inactive: [6] 106 % of control | [7] 97 % of control | [8] 101 % of control | [9] 96 % of control | [10] 101 % of control

CC(=O)C1(O)CCCCC1
inactive: [11] 104 % of control | dose: 100.0 mg/kg/injection, schedule: Q04DX003 (ip), vehicle: saline 92 % of control | [12] 98 % of control | dose: 200.0 mg/kg/injection, schedule: Q04DX003 (ip), vehicle: saline 98 % of control | [13] 109 % of control | dose: 400.0 mg/kg/injection, schedule: Q04DX003 (ip), vehicle: saline 94 % of control

C=Cc1c(C)c2cc3[nH]c(cc4nc(cc5nc(cc1[nH]2)C(C)=C5CCC(=O)O)C(CCC(=O)O)=C4C)c(C)c3C=C
inactive: dose: 100.0 mg/kg/injection, schedule: Q04DX003 (ip), vehicle: dextrose 96 % of control | dose: 200.0 mg/kg/injection, schedule: Q04DX003 (ip), vehicle: dextrose 100 % of control | [14] 88 % of control | dose: 400.0 mg/kg/injection, schedule: Q04DX003 (ip), vehicle: dextrose 100 % of control

O=C(O)COCc1ccccc1
inactive: dose: 100.0 mg/kg/injection, schedule: Q04DX003 (ip), vehicle: saline sonified 97 % of control | dose: 200.0 mg/kg/injection, schedule: Q04DX003 (ip), vehicle: saline sonified 92 % of control | dose: 400.0 mg/kg/injection, schedule: Q04DX003 (ip), vehicle: saline sonified 92 % of control

CC(C)CCNCC(C)(C)OC(=O)c1ccc(N)cc1
inactive: dose: 10.0 mg/kg/injection, schedule: Q01DX001 (ip), vehicle: saline 112 % of control | dose: 20.0 mg/kg/injection, schedule: Q01DX001 (ip), vehicle: saline 100 % of control | dose: 40.0 mg/kg/injection, schedule: Q01DX001 (ip), vehicle: saline 102 % of control

O=C1c2ccccc2C(=O)c2c(NCCN3CCOCC3)ccc(NCCN3CCOCC3)c21
inactive: dose: 87.5 mg/kg/injection, schedule: Q01DX009 (ip), vehicle: Klucel (hydroxypropylcellulose) (HPC) 96 % of control | dose: 175.0 mg/kg/injection, schedule: Q01DX009 (ip), vehicle: Klucel (hydroxypropylcellulose) (HPC) 102 % of control | dose: 350.0 mg/kg/injection, schedule: Q01DX009 (ip), vehicle: Klucel (hydroxypropylcellulose) (HPC) 107 % of control

CC(=O)C1CCCC23CC(CC12)C(C)(C)C3Br (configuration not stated)
inactive: [15] 100 % of control | [16] 103 % of control | [17] 97 % of control

CC(=O)NCCCc1c(C)nc(NC(C)=O)[nH]c1=O
inactive: dose: 25.0 mg/kg/injection, schedule: Q01DX001 (ip), vehicle: saline 94 % of control | [18] 108 % of control | [19] 102 % of control

c1ccc2c(c1)[nH]c1cc3ccncc3cc12
inactive: [18] 100 % of control | [6] 94 % of control | [19] 94 % of control | [15] 93 % of control | [8] 96 % of control | [20] 98 % of control | [16] 93 % of control | [10] 92 % of control | dose: 400.0 mg/kg/injection, schedule: Q01DX001 (ip), vehicle: saline 96 % of control | [17] 91 % of control

OC1CCC(c2ccccc2)C1 (configuration not stated)
inactive: dose: 75.0 mg/kg/injection, schedule: Q01DX001 (ip), vehicle: other 98 % of control | dose: 150.0 mg/kg/injection, schedule: Q01DX001 (ip), vehicle: other 97 % of control | dose: 300.0 mg/kg/injection, schedule: Q01DX001 (ip), vehicle: other 106 % of control

O=c1[nH]c(=O)c2[nH]cnc2[nH]1
inactive: dose: 50.0 mg/kg/injection, schedule: Q01DX009 (ip), vehicle: saline with Tween-80 100 % of control | [21] 94 % of control | [22] 90 % of control

CC(=O)OC12CCCC(=O)C1C1CC/C=C\CCC12 (configuration not stated)
inactive: [6] 111 % of control | [7] 98 % of control | [15] 95 % of control | [8] 108 % of control | [9] 98 % of control | [16] 98 % of control | [10] 102 % of control | [23] 96 % of control | [17] 95 % of control

O=C1CC(c2ccc(Cl)cc2)NC(c2ccc(Cl)cc2)C1 (configuration not stated)
inactive: [21] 101 % of control | [24] 93 % of control | [22] 101 % of control | [25] 96 % of control | [14] 103 % of control | dose: 400.0 mg/kg/injection, schedule: Q04DX003 (ip), vehicle: saline with Tween-80 98 % of control

S=c1[nH]c(=S)c2[nH]cnc2[nH]1
inactive: dose: 50.0 mg/kg/injection, schedule: Q01DX001 (ip), vehicle: other 113 % of control | [1] 94 % of control | dose: 100.0 mg/kg/injection, schedule: Q01DX001 (ip), vehicle: other 101 % of control | [2] 96 % of control | dose: 200.0 mg/kg/injection, schedule: Q01DX001 (ip), vehicle: other 103 % of control | dose: 200.0 mg/kg/injection, schedule: Q01DX009 (ip), vehicle: other 97 % of control | dose: 400.0 mg/kg/injection, schedule: Q01DX001 (ip), vehicle: other 107 % of control | dose: 400.0 mg/kg/injection, schedule: Q01DX009 (ip), vehicle: other 102 % of control | dose: 600.0 mg/kg/injection, schedule: Q01DX001 (ip), vehicle: other 100 % of control | dose: 1200.0 mg/kg/injection, schedule: Q01DX001 (ip), vehicle: other 117 % of control

CC1=CC(=O)C2C(C)(O1)C1C(=O)C=C(C)OC21C (configuration not stated)
inactive: [6] 93 % of control | [15] 101 % of control | [8] 101 % of control | [16] 100 % of control | [10] 104 % of control | [17] 92 % of control

CC1=Nc2ccccc2N=C(C)C1
inactive: [19] 107 % of control | [24] 93 % of control | [20] 102 % of control | [25] 96 % of control

CC(=O)C(N=Nc1ccccc1)C(C)=O
inactive: dose: 25.0 mg/kg/injection, schedule: Q01DX009 (ip), vehicle: Klucel (hydroxypropylcellulose) (HPC) 94 % of control | dose: 50.0 mg/kg/injection, schedule: Q01DX009 (ip), vehicle: Klucel (hydroxypropylcellulose) (HPC) 92 % of control | [7] 97 % of control and 102 % of control

COc1ccc(OC(=O)Nc2cccc(Cl)c2)cc1
inactive: [7] 94 % of control | [9] 100 % of control | [23] 100 % of control

Cc1ccc([N+](=O)[O-])cc1NC(=O)Sc1ccc(C(C)(C)C)cc1
inactive: [15] 98 % of control | [16] 98 % of control | [17] 98 % of control

CCCCCCN(C)Cc1ccc(OCCOc2ccc(CN(C)CCCCCC)cc2)cc1
inactive: [18] 100 % of control

O=S(=O)(CCO)CCO
inactive: dose: 50.0 mg/kg/injection, schedule: Q01DX009 (ip), vehicle: saline 100 % of control | [11] 100 % of control and 88 % of control | [12] 96 % of control and 100 % of control | [13] 97 % of control

CCOC(=O)C1OC12CCC(C(C)(C)C)CC2 (configuration not stated)
inactive: [21] 95 % of control | [3] 100 % of control | [22] 91 % of control | [4] 100 % of control | [14] 88 % of control | [5] 93 % of control

NC(Cc1cc(Cl)c(O)c(Cl)c1)C(=O)O (configuration not stated)
inactive: [11] 103 % of control | dose: 150.0 mg/kg/injection, schedule: Q01DX009 (ip), vehicle: saline 108 % of control | [12] 103 % of control
